The record followed here is DBAASP.

Molecules are shown by their SMILES. ≈ marks a conversion by molar mass, not a printed value.

Common to all, as to experiment: ≥ marks a high value that may be exact or a test limit, other limits are often not marked, values filed in µg/mL are converted to µM
The subject of experiment [1] is Pseudomonas aeruginosa Ps4.
Experiment [2] deals with Staphylococcus aureus MTCC 3160.
For experiment [3], the system named is Staphylococcus haemolyticus MTCC 3383.
In experiment [4] the test system is Klebsiella pneumoniae MTCC 7407.
The test system of experiment [5] is Enterococcus faecalis MTCC 439.
Experiment [6] has as its system Klebsiella oxytoca MTCC 2275.
In experiment [7] the test system is Citrobacter koseri MTCC 1657.
The test system of experiment [8] is Escherichia coli K12 MG1655.
In experiment [9] the test system is Bordetella bronchiseptica MTCC 6837.
Experiment [10] has as its system Alkalihalobacillus alcalophilus MTCC 860.
Experiment [11] relates to Stenotrophomonas maltophilia MTCC 1890.
The subject of experiment [12] is Shigella boydii MTCC 11947.
The subject of experiment [13] is Klebsiella aerogenes MTCC 111.
For experiment [14], the system named is Haemophilus influenzae MTCC 621.
Experiment [15] relates to Salmonella enterica MTCC 9844.
Experiment [16] concerns Alcaligenes faecalis MTCC 1937.
The subject of experiment [17] is Acinetobacter baumannii MTCC 9829.
The subject of experiment [18] is Proteus vulgaris MTCC 1771.
The test system of experiment [19] is Proteus mirabilis MTCC 3158.
In experiment [20] the test system is Citrobacter freundii MTCC 1658.
Experiment [21] deals with Pluralibacter gergoviae MTCC 3826.
In experiment [22] the test system is Vibrio cholerae MTCC 3904.
The subject of experiment [23] is Shigella flexneri MTCC 1457.
The test system of experiment [24] is Salmonella enterica subsp. enterica serovar Typhimurium ATCC 14028.
In experiment [25] the test system is Corynebacterium glutamicum MTCC 2679.
Experiment [26] deals with Pseudomonas aeruginosa MTCC 3542.
For experiment [27], the system named is Staphylococcus aureus ATCC 25923.
In experiment [28] the test system is Escherichia coli MG1655.
The test system of experiment [29] is Pseudomonas aeruginosa PAO1.
In experiment [30] the test system is Candida albicans.
Experiment [31] relates to Escherichia coli ATCC 25922.

In [1], `CC[C@H](C)[C@H](NC(=O)[C@H](CC(N)=O)NC(=O)[C@H](CCCN=C(N)N)NC(=O)[C@H](CCC(N)=O)NC(=O)[C@H](Cc1c[nH]c2ccccc12)NC(=O)[C@@H](N)CCCCN)C(=O)N[C@@H](CCCN=C(N)N)C(=O)N[C@@H](CCCCN)C(=O)N[C@H](C(=O)N[C@@H](CCCN=C(N)N)C(=O)N[C@@H](CCCN=C(N)N)C(N)=O)C(C)C` [KWQRNIRKVRR] gave an MIC of no less than 162 µM.

Turning to `CC[C@H](C)[C@H](NC(=O)CNC(=O)[C@H](CCCCN)NC(=O)[C@H](C)NC(=O)[C@H](C)NC(=O)[C@H](CCCCN)NC(=O)[C@H](Cc1cnc[nH]1)NC(=O)[C@@H](NC(=O)[C@H](C)NC(=O)[C@H](CCCCN)NC(=O)[C@H](Cc1c[nH]c2ccccc12)NC(=O)CN)[C@@H](C)CC)C(=O)N[C@@H](Cc1cnc[nH]1)C(=O)N[C@H](C(=O)N[C@@H](Cc1ccc(O)cc1)C(=O)N[C@H](C(=O)N[C@@H](CC(N)=O)C(=O)O)C(C)C)[C@@H](C)O` [GWKAIHKAAKGIHTYVN], the MIC in experiment [2], in experiment [3], in experiment [4], in experiment [5], in [6] and in [7] was no less than 67.6 µM throughout. Also, the MIC in [8], in experiment [9], in experiment [10], in experiment [11], in experiment [12] and in experiment [13] was no less than 67.6 µM in each case. In addition, the MIC was no less than 33.8 µM in experiment [14]; no less than 67.6 µM in [15]; no less than 67.6 µM in experiment [16]; no less than 67.6 µM in experiment [17]; no less than 67.6 µM in experiment [18]; no less than 67.6 µM in experiment [19]. The MIC in experiment [20] is no less than 67.6 µM; in experiment [21], no less than 67.6 µM; in experiment [22], no less than 67.6 µM; in experiment [23], no less than 67.6 µM; in [24], greater than 67.6 µM; in experiment [25], no less than 33.8 µM. The molecule further gave an MIC in [26] of no less than 67.6 µM.

Turning to `CC[C@H](C)[C@H](NC(=O)[C@@H]1CCCN1C(=O)[C@H](CCCN=C(N)N)NC(=O)[C@H](CCC(N)=O)NC(=O)[C@H](Cc1c[nH]c2ccccc12)NC(=O)[C@@H](N)Cc1ccccc1)C(=O)N[C@@H](CCCN=C(N)N)C(=O)N[C@@H](CCCCN)C(=O)N[C@H](C(=O)N[C@@H](CCCN=C(N)N)C(N)=O)C(C)C` [FWQRPIRKVR], the MIC in experiment [1] is no less than 180 µM.

With `CC[C@H](C)[C@H](NC(=O)[C@H](CCCCN)NC(=O)[C@H](CCCN=C(N)N)NC(=O)[C@H](CCC(N)=O)NC(=O)[C@H](Cc1c[nH]c2ccccc12)NC(=O)[C@@H](N)Cc1ccccc1)C(=O)N[C@@H](CCCN=C(N)N)C(=O)N[C@@H](CCCCN)C(=O)N[C@H](C(=O)N[C@@H](CCCCN)C(=O)N[C@@H](CCCCN)C(N)=O)C(C)C` [FWQRKIRKVKK], the MIC in experiment [1] was no less than 165 µM.

As for `CC[C@H](C)[C@H](NC(=O)[C@@H](N)CCC(=O)O)C(=O)N[C@@H](CC(C)C)C(=O)N[C@@H](CO)C(=O)N[C@@H](CCCCN)C(=O)N[C@@H](C)C(=O)N[C@@H](CC(C)C)C(=O)N[C@@H](CO)C(=O)N[C@@H](C)C(=O)N[C@@H](CC(C)C)C(=O)N[C@@H](CO)C(=O)N1CCC[C@H]1C(=O)N[C@@H](CC(C)C)C(=O)N[C@@H](C)C(=O)N[C@@H](CC(N)=O)C(=O)O` [EILSKALSALSPLAN], the MIC in [2], in [3], in [4], in [5], in experiment [6] and in experiment [7] was no less than 83.8 µM each time. The MIC in [8], in experiment [9], in [10], in experiment [11], in experiment [12] and in [13] was no less than 83.8 µM in each case. Further, the MIC in experiment [14], in [15], in experiment [16], in experiment [17], in experiment [18] and in [19] was no less than 83.8 µM each time. The MIC was no less than 83.8 µM in [20]; no less than 83.8 µM in experiment [21]; no less than 83.8 µM in experiment [22]; no less than 83.8 µM in experiment [23]; greater than 83.8 µM in [24]; no less than 83.8 µM in experiment [25]. In addition, the MIC in experiment [26] is no less than 83.8 µM.

As to `CSCC[C@H](NC(=O)[C@@H](NC(=O)[C@H](CCCCN)NC(=O)[C@H](C)NC(=O)[C@H](CC(C)C)NC(=O)CN)C(C)C)C(=O)N[C@@H](CCCN=C(N)N)C(=O)N[C@@H](CCCCN)C(=O)N[C@H](C(=O)N[C@@H](CC(C)C)C(=O)NCC(=O)N[C@@H](Cc1ccc(O)cc1)C(=O)N[C@@H](CC(C)C)C(=O)N[C@@H](CCCN=C(N)N)C(=O)N[C@@H](CC(N)=O)C(=O)N[C@H](C(=O)N[C@@H](Cc1ccc(O)cc1)C(=O)N[C@@H](CCCCN)C(N)=O)C(C)C)C(C)C` [GLAKVMRKVLGYLRNVYK], the MIC in experiment [27] turned out to be 5.66 µM (≈ 11.9 µg/mL); in [28], 2.83 µM (≈ 5.96 µg/mL); in experiment [29] it was 8 µM (≈ 16.9 µg/mL); in [30], 22.6 µM (≈ 47.7 µg/mL).

Take `CC[C@H](C)[C@H](NC(=O)[C@H](CCCN=C(N)N)NC(=O)[C@@H](NC(=O)[C@H](CC(N)=O)NC(=O)[C@H](CCCN=C(N)N)NC(=O)[C@H](CCC(N)=O)NC(=O)[C@H](Cc1c[nH]c2ccccc12)NC(=O)[C@@H](N)Cc1ccccc1)[C@@H](C)CC)C(=O)N[C@@H](CCCN=C(N)N)C(=O)N[C@@H](CCCN=C(N)N)C(N)=O` [FWQRNIRIRR]: the MIC is 86.5 µM (≈ 125 µg/mL) in experiment [31] and no less than 173 µM in experiment [1].

For the molecule `CSCC[C@H](NC(=O)[C@H](CCCCN)NC(=O)[C@H](CCCCN)NC(=O)[C@H](CC(C)C)NC(=O)[C@H](C)N)C(=O)N[C@@H](CC(C)C)C(=O)N[C@@H](CCCN=C(N)N)C(=O)N[C@@H](CC(C)C)C(=O)N[C@@H](C)C(=O)N[C@@H](CCCCN)C(=O)N[C@@H](CCCN=C(N)N)C(=O)N[C@@H](CC(C)C)C(=O)N[C@@H](CO)C(=O)O` [ALKKMLRLAKRLS], the MIC in experiment [2] is no less than 83.8 µM; in [3] it was no less than 83.8 µM; in experiment [4], no less than 83.8 µM; in experiment [5], no less than 83.8 µM; in experiment [6], no less than 83.8 µM; in experiment [7] it was no less than 41.9 µM. The MIC was no less than 41.9 µM in [8]; 5.24 µM (≈ 8 µg/mL) in experiment [9]; no less than 83.8 µM in [10]; no less than 83.8 µM in [11]; no less than 41.9 µM in [12]; no less than 83.8 µM in experiment [13]. Besides, the MIC was no less than 41.9 µM in [14]; 20.9 µM (≈ 32 µg/mL) in [15]; no less than 83.8 µM in experiment [16]; no less than 83.8 µM in experiment [17]; no less than 83.8 µM in experiment [18]; no less than 83.8 µM in experiment [19]. Besides, the MIC is no less than 83.8 µM in [20]; no less than 83.8 µM in experiment [21]; no less than 83.8 µM in [22]; 20.9 µM (≈ 32 µg/mL) in experiment [23]; greater than 83.8 µM in experiment [24]; 10.5 µM (≈ 16 µg/mL) in experiment [25]. In experiment [26], this molecule gave an MIC of no less than 83.8 µM.
